According to the NIST ThermoML archive (doi:10.1021/je400781b):
Numbers after ± are expanded uncertainties.

Assay: xn = mol fraction of the nth substance listed
Settings: 101 kPa, Liquid; for speed of sound: Frequency=2.75 MHz, Pulse-echo method; for mass density: Vibrating tube method

CCCC[n+]1ccn(C)c1.O=S(=O)([N-]S(=O)(=O)C(F)(F)F)C(F)(F)F + C1CCOC1
Settings	mass density, 293.15 K [kg/m3]	mass density, 298.15 K [kg/m3]	mass density, 303.15 K [kg/m3]	mass density, 308.15 K [kg/m3]	speed of sound, 293.15 K [m/s]	speed of sound, 298.15 K [m/s]	speed of sound, 303.15 K [m/s]	speed of sound, 308.15 K [m/s]
x1 = 0.0507	981.03 ± 0.63	975.68 ± 0.62	970.55 ± 0.62	965.26 ± 0.63	1276.2 ± 1.2	1254.6 ± 1.2	1233.2 ± 1.2	1212 ± 1.2
x1 = 0.124	1080.62 ± 0.49	1075.39 ± 0.49	1070.15 ± 0.49	1064.96 ± 0.49	1257.3 ± 1.2	1238.5 ± 1.2	1219.9 ± 1.2	1201.5 ± 1.2
x1 = 0.1963	1153.02 ± 0.34	1147.88 ± 0.33	1142.73 ± 0.33	1137.6 ± 0.34	1246.9 ± 1.2	1230 ± 1.2	1213.2 ± 1.2	1196.6 ± 1.2
x1 = 0.3526	1258.69 ± 0.3	1253.67 ± 0.3	1248.66 ± 0.3	1243.66 ± 0.3	1236.8 ± 1.2	1222.4 ± 1.2	1208 ± 1.2	1193.8 ± 1.2
x1 = 0.4962	1321.98 ± 0.3	1317.04 ± 0.3	1312.1 ± 0.3	1307.18 ± 0.3	1234.1 ± 1.3	1220.9 ± 1.3	1207.8 ± 1.3	1194.9 ± 1.3
x1 = 0.6378	1366.6 ± 0.36	1361.72 ± 0.36	1356.84 ± 0.35	1351.97 ± 0.35	1233.5 ± 1.3	1221 ± 1.3	1208.7 ± 1.3	1196.5 ± 1.3
x1 = 0.8047	1405.56 ± 0.46	1400.72 ± 0.46	1395.89 ± 0.46	1391.07 ± 0.45	1235.6 ± 1.4	1223.8 ± 1.4	1212.2 ± 1.4	1200.7 ± 1.4
x1 = 0.9143	1425.59 ± 0.54	1420.79 ± 0.54	1415.99 ± 0.54	1411.2 ± 0.53	1236.9 ± 1.5	1225.4 ± 1.5	1214.1 ± 1.5	1203 ± 1.5
x1 = 1	1439.23 ± 0.61	1434.44 ± 0.61	1429.65 ± 0.6	1424.88 ± 0.6	1237.9 ± 1.5	1226.7 ± 1.5	1215.6 ± 1.5	1204.6 ± 1.5

CCCC[n+]1ccn(C)c1.O=S(=O)([N-]S(=O)(=O)C(F)(F)F)C(F)(F)F + CC#N
Settings	mass density, 293.15 K [kg/m3]	mass density, 298.15 K [kg/m3]	mass density, 303.15 K [kg/m3]	mass density, 308.15 K [kg/m3]	mass density, 313.15 K [kg/m3]	speed of sound, 293.15 K [m/s]	speed of sound, 298.15 K [m/s]	speed of sound, 303.15 K [m/s]	speed of sound, 308.15 K [m/s]	speed of sound, 313.15 K [m/s]
x1 = 0.0506	936.84 ± 0.95	931.39 ± 0.94	925.93 ± 0.94	920.45 ± 0.94	914.95 ± 0.96	1259.9 ± 1.2	1241.7 ± 1.2	1223.7 ± 1.2	1205.7 ± 1.2	1187.9 ± 1.2
x1 = 0.1242	1078.45 ± 0.63	1073.07 ± 0.63	1067.67 ± 0.63	1062.27 ± 0.63	1056.87 ± 0.64	1241 ± 1.2	1224.8 ± 1.2	1208.7 ± 1.2	1192.7 ± 1.2	1176.8 ± 1.2
x1 = 0.2041	1175.48 ± 0.39	1170.19 ± 0.38	1164.9 ± 0.38	1159.61 ± 0.38	1154.32 ± 0.4	1235 ± 1.2	1220.1 ± 1.2	1205.3 ± 1.2	1190.6 ± 1.2	1176 ± 1.2
x1 = 0.341	1275.66 ± 0.31	1270.52 ± 0.31	1265.38 ± 0.31	1260.25 ± 0.31	1255.12 ± 0.32	1234 ± 1.3	1220.4 ± 1.2	1206.9 ± 1.2	1193.5 ± 1.2	1180.3 ± 1.2
x1 = 0.5016	1343.88 ± 0.33	1338.86 ± 0.32	1333.85 ± 0.32	1328.85 ± 0.32	1323.86 ± 0.32	1235.1 ± 1.3	1222.4 ± 1.3	1209.9 ± 1.3	1197.5 ± 1.3	1185.2 ± 1.3
x1 = 0.6525	1384.46 ± 0.39	1379.53 ± 0.39	1374.6 ± 0.38	1369.69 ± 0.38	1364.79 ± 0.38	1236.2 ± 1.4	1224.1 ± 1.4	1212.1 ± 1.4	1200.3 ± 1.4	1188.6 ± 1.4
x1 = 0.7861	1410.16 ± 0.47	1405.28 ± 0.46	1400.42 ± 0.46	1395.58 ± 0.45	1390.74 ± 0.45	1237.1 ± 1.4	1225.4 ± 1.4	1213.8 ± 1.4	1202.4 ± 1.4	1191 ± 1.4
x1 = 0.9575	1434.22 ± 0.58	1429.41 ± 0.58	1424.61 ± 0.57	1419.83 ± 0.57	1415.06 ± 0.56	1237.9 ± 1.5	1226.6 ± 1.5	1215.4 ± 1.5	1204.3 ± 1.5	1193.4 ± 1.5
x1 = 1	1439.23 ± 0.61	1434.44 ± 0.61	1429.65 ± 0.6	1424.88 ± 0.6	1420.12 ± 0.59	1237.9 ± 1.5	1226.7 ± 1.5	1215.6 ± 1.5	1204.6 ± 1.5	1193.7 ± 1.5
